Reference: patent US9018006B2, “Stable Tregs and related materials and methods” (The University of Toledo, priority 2010, dated 2015)

Tests used:
[1] = tested on: iTreg cells; assay: Stability of Foxp3 expression of induced iTregs after re-stimulation with anti-CD3/anti-CD28 mAbs; type: cell-based, mouse; details: after repeated re-stimulation with anti-CD3/anti-CD28 mAbs; nTreg cells 80%
Procedure: FIGS. 4A-4B. Stability of Foxp3 expression and suppressor function of the two-phase induced iTreg T cells. The nTreg cells were isolated from spleen of naïve mice (left panel). Naïve mouse CD4^+Foxp3/GFP^− cells (1×10^6/ml) cultured with APCs were stimulated with anti-CD3 mAb in the presence of 5 ng/ml TGF-β, 5 μg/ml anti-IL-2 mAb (S4B6), or 100 nM CP-690,550 for 3 days. After washing, fresh medium was supplemented with 10 units/ml rIL-2 and cultured for additional 3 days (total 6 day culture). All these 4 populations were subsequently re-stimulated with anti-CD3 mAb/anti-CD28 mAb for 3 days and examined by FACscan for Foxp3 expression (FIG. 4A). Purified naive CD4^+Foxp3/GFP^− cells labeled with CFSE were used as T-effector (Teff) cells and mixed with re-stimulated nTreg cells or re-stimulated CP-690,550-induced iTreg cells. Proliferation was measured by the number of Teff cell divisions (FIG. 4B).
Furthermore, the stability of Foxp3 expression of anti-IL-2 mAb-(S4B6) or Jak3 inhibitor (CP-690,550)-induced iTregs was compared with TGF-β-induced iTregs.

[2] = tested on: Naïve CD4+ Foxp3/GFP− cells; assay: Two-phase induction/expansion of iTregs, Method 1 (anti-CD3/anti-CD28 plus inhibitor, then rIL-2); type: cell-based, mouse
[3] = tested on: T effector (Teff) cells; details: Teff:Treg 1:1, after repeated re-stimulation
[4] = tested on: transplant patients; details: compared with OKT3 mAb; cited from earlier work

In the case of C[C@@H]1CCN(C(=O)CC#N)C[C@@H]1N(C)c1ncnc2[nH]ccc12 [CP-690,550], the “induced iTreg cells that maintained Foxp3 expression” value [1] is reported as 75%, the “Foxp3 expression during proliferation (cell divisions)” value ([2]; 6-day culture) is reported as “maintained similar levels of Foxp3 expression” and the “number of CD4+CD25+Foxp3/GFP+ cells on day 6 of culture” value ([2]; from initial 0.05×10^6 CD4+ Foxp3/GFP− cells) is reported as 0.4×10^6 cells. The “expansion in the number of iTreg cells” value ([2]; initial 3-day exposure, day 6 of culture) was 8 fold and the “suppressor function of induced iTreg cells” value [3] was “maintained very potent suppressor function”.
For TGF-β, the “induced iTreg cells that maintained Foxp3 expression” value [1] was 4.3%.
With O=C(N/N=C/c1coc2ccccc2c1=O)c1cccnc1 [Stat5 inhibitor] the “naïve CD4+ Foxp3/GFP− cells converted into CD4+CD25+Foxp3/GFP+ iTregs” value ([2]; 100 ng/ml Stat5 inhibitor first 3 days, then rIL-2 3 days, untreated controls 7%) was 36%.
For “OKT3 mAb: mouse anti-human CD3 agonist mAb”, the “adverse effects in patients” value [4] is listed as “elicited the release of many cytokines causing flu-like symptoms”.
